Literature values as cited in patent US20230357868A1 (priority 2021, published 2023).

Assays:
[1] = system: potato spindle tuber viroid (PSTVd); details: LAMP reaction
[2] = LAMP visualization reagent

| SMILES | Effect on amplification [1] | Toxicity [2] |
| --- | --- | --- |
| O=S(=O)([O-])c1ccc2c(N=Nc3c(O)cc(S(=O)(=O)[O-])c4ccccc34)c(O)c(S(=O)(=O)[O-])cc2c1.[Na+].[Na+].[Na+] [Hydroxynaphthol blue (HNB)] | None | May cause eye irritation |
| CCCN(CCCN(C)C)c1cc(/C=C2/Sc3ccccc3N2C)c2ccccc2[n+]1-c1ccccc1 [SYBR Green I] | Not inhibiting when used 0.5-1x | Mutation enhancer |
| O=P([O-])([O-])OP(=O)([O-])[O-].[Mg+2].[Mg+2] [Mg-pyrophosphate (Mg-PPi)] | None |  |
